Patent US20180319865A1, “Identification of Novel Small Molecule Beta2 Integrin Agonists” (Rush University Medical Center, priority 2016, published 2018)

What was measured:
Assay type in all cases: cell-based
[1] = target: T1, mutant integrin CD11bE320A/CD18 (Homo sapiens, UniProt P11215, E336A); experiment: HTS cell adhesion assay, K562 E320A cells on immobilized fibrinogen; details: five point dose-response
T1 construct: expressed in transfected cells; host or cells: K562 (ATCC)
In short: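 K562 cells expressing the indicated CD11b/CD18 integrin were added to wells coated with 15 μg/mL fibrinogen and incubated with compound for 30 min at 37 °C in Ca2+/Mg2+ buffer. Non-adherent cells were removed by plate inversion. Adherent cells were fixed, stained with DAPI and counted by high-content imaging, scaled from 0% (1 mM Ca2+/Mg2+) to 100% (Mn2+ activation).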

[2] = target: T2, integrin CD11c/CD18 (Homo sapiens, UniProt P20702); experiment: HTS cell adhesion assay, K562 CD11c/CD18 cells on immobilized fibrinogen; details: for EC50 CD11c/CD18: K562 CD11c/CD18 cells, adhesion to fibrinogen, dose-response
T2 construct: expressed in transfected cells; host or cells: K562 (ATCC)
Description: (§1) K562 cells stably expressing CD11c/CD18 (K562 CD11c/CD18) were generated similarly. Mutant CD11bE320A has been described previously. K562 cells stably transfected with mutant integrin CD11bE320A/CD18 (K562 E320A) were generated according to literature protocols. All cell lines were maintained in Iscove's Modified Dulbecco's Medium (IMDM) supplemented with 10% heat-inactivated fetal bovine serum, 50 IU/mL penicillin and streptomycin and 0.5 mg/mL G418.
(§2) Cell adhesion assays with immobilized ligands were performed using the general protocol previously described and as illustrated in FIG. 1 [33]. Assays with all different K562 cell lines (K562, K562 CD11b/CD18, K562 CD11c/CD18 and K562 E320A) were performed in an identical fashion. Briefly, 384-well microplates (Corning 3700) were coated with 15 μg/mL fibrinogen (Fg) ligand in PBS^++ overnight at 4° C. At the same time, anti-CD18 (IB4) mAb was also coated. Subsequently, the coated wells were washed with 1% nonfat milk in TBS at room temperature for 1 hour. Next, the wells were washed 3 times with TBS, and the coated microplates were used in the HTS assays.
(§3) K562 CD11b/CD18, K562 CD11bE320A/CD18 and K562 CD11c/CD18 cells were washed with TBS, and cells were transferred to the Fg-coated wells of microplates in the assay buffer (Ca^2+ and Mg^2+ for physiological condition, Mn^2+ as the Positive control). A 1 μL aliquot of the compounds were transferred to each washed well with multichannel pipet from the 384-well plates.
(§4) The assay plates were incubated at 37° C. in the presence of small-molecule compounds for 30 min. To dislodge the non-adherent cell, the assay plates were gently inverted and kept in inverted position for 20 min at room temperature.
(§5) The cells were fixed with 37% formaldehyde in a small volume and the plates were kept inverted for 1 h. Upon the fixation, the solutions in the well were discarded. Next, the cells were fluorescently labeled with DAPI (0.5 μM final in TBS with 0.1% Triton X-100) and the quantitated with “Opera High Content Screening System” (Perkin Elmer).
Cell-adhesion under positive and negative control conditions was used to define the activity scale; signal corresponding to the number of non-small molecule treated cells adherent in activating buffer condition (in the presence of Mn^2+ ions as agonist, PC) was considered maximum (100% binding) and the signal corresponding to the number of non-small molecule treated cells adherent in basal buffer condition (in the presence of 1 mM each of Ca^2+ and Mg^2+, NC) was considered minimum (0% binding). […]
The compounds were diluted in DMSO by the final concentration 10 μM, 5 μM, 2.5 μM, 1.25 μM and 0.625 μM and stocked as sealed in 384-well plates at −80° C.

[3] = target: T3, wild-type integrin CD11b/CD18 (Homo sapiens, UniProt P11215); experiment: HTS cell adhesion assay, K562 CD11b/CD18 cells on immobilized fibrinogen
T3 construct: expressed in transfected cells; host or cells: K562 (ATCC)
Description: as §1, with “Mutant CD11bE320A has been described previously.” left out
as §2, §3, §4, §5
Cell-adhesion under positive and negative control conditions was used to define the activity scale; signal corresponding to the number of non-small molecule treated cells adherent in activating buffer condition (in the presence of Mn^2+ ions as agonist, PC) was considered maximum (100% binding) and the signal corresponding to the number of non-small molecule treated cells adherent in basal buffer condition (in the presence of 1 mM each of Ca^2+ and Mg^2+, NC) was considered minimum (0% binding).

[4] = Table 3, adhesion to fibrinogen
[5] = Table 3, adhesion to fibrinogen, 5-point dose-response
[6] = Table 4, adhesion to fibrinogen, dose-response
[7] = Table 4, adhesion to fibrinogen

Row | EC50 [1, 4] [µM] | EC50 [2] [µM] | Structure (SMILES) | other results
1 | 1.26 |  | O=C(Cn1c(=O)oc2cc(S(=O)(=O)N3CCCC3)ccc21)NC1CCCc2ccccc21 (stereo not drawn) [Compound 5308150] | EC50 [1, 7]: 1.26 µM; EC50 CD11c/CD18 ([2]; Table 3): Very Low; EC50 CD11c/CD18 ([2]; Table 4): N/A Very Low; EC50 CD11b/CD18 [3, 6]: N/A Very Low
2 | 4.99 | 2.6 | COCCCNC(=O)c1c(N)n(/N=C/c2cccs2)c2nc3ccccc3nc12 [Compound 6880740] | 
3 | 6.72 | 5.05 | Cc1ccc2nc(-c3ccc(NC(=O)CCS(=O)(=O)c4ccccc4)cc3)sc2c1 [Compound 12005977] | 
4 | 6.19 | 3.73 | CC(C)CNC(=O)c1c(N)n(/N=C/c2ccccn2)c2nc3ccccc3nc12 [Compound 9568664] | 
5 | 3.69 | 1.35 | Cc1ccc(CCN2CC(C(=O)NCCCN3CCCCCC3)CC2=O)cc1 (stereo not drawn) [Compound 3237466] | 
6 | 5.42 | 4.64 | O=C(ONc1ccc(N=NC(=O)c2ccccc2O)cc1)c1ccccc1 [Compound 4483668] | 
7 | 6.55 | 4.5 | Cc1ccc(/C=C/C(=O)Nc2ccc([N+](=O)[O-])c(NC(=O)/C=C/c3ccc(C)o3)c2)o1 [Compound 5736971] | 
8 |  | 2.42 | O=C(N/N=C/c1ccc(-c2ccc(S(=O)(=O)Nc3ncccn3)cc2)o1)c1cc2ccccc2cc1O [Compound 6892904] | EC50 [1, 7]: 5.49 µM
9 | 5.3 | 2.63 | O=c1c(-c2nc3ccccc3o2)c2oc3ccccc3n2c2ccccc12 [Compound 2321209] | 
10 | 12.8 |  | COC(=O)c1cc(OC)c(OC)cc1NC(=O)c1cc(-c2ccccc2)nc2ccccc12.Cl [Compound 2965657] | EC50 CD11c/CD18 ([2]; Table 3): Infinite
11 | 2.83 | 4.04 | Cc1ccc2nc(-c3ccc(NC(=O)COC(=O)c4cncc(Br)c4)cc3)sc2c1 [Compound 2365417] | 
12 | 6.23 | 5.84 | COc1cc(NC(=O)Cn2c(=O)n(-c3cccc(C)c3)c(=O)c3c(C)c(C)sc32)cc(OC)c1 [Compound 12004750] | 
13 | 259 |  | Cn1c(C(=O)NCCN2CCc3ccccc3C2)cc2c(=O)n(C)c3ccccc3c21 [Compound 5309909] | EC50 CD11c/CD18 ([2]; Table 3): Infinite
14 | 4.91 | 4.03 | Cc1nc(C)c(C(=O)Nc2nc3c(C)cccc3s2)o1 [Compound 3244965] | 
15 | 5.17 | 1.99 | CCOC(=O)Cc1csc(NC(=O)c2sc3nc4c(C)cc(C)cc4cc3c2N)n1 [Compound 3207334] | 
16 | 4.16 | 1.03 | CCCCCCCC(=O)Nc1ccc(C(=O)N/N=C/c2cccc([N+](=O)[O-])c2)cc1 [Compound 9774264] | 

The next lines start with the molecule.

Row | Structure (SMILES) | EC50 [1, 4] [µM] | EC50 [2] [µM] | other results
17 | O=C(O)CCN1C(=O)/C(=C\c2ccc(-c3nc4ccccc4s3)o2)SC1=S [Compound 2030970] |  |  | EC50 E320A [1, 4]: Very Low; EC50 CD11c/CD18 ([2]; Table 4): N/A Very Low; EC50 CD11b/CD18 [3, 5]: Very Low; EC50 CD11b/CD18 [3, 6]: N/A Very Low
18 | O=C(O)CCN1C(=O)/C(=C/c2ccc(-c3nc4ccccc4s3)o2)SC1=S [Compound 2030972] | 6.69 |  | EC50 [1, 7]: 6.69 µM; EC50 CD11c/CD18 ([2]; Table 3): Very Low; EC50 CD11c/CD18 ([2]; Table 4): N/A Very Low; EC50 CD11b/CD18 [3, 5]: Very Low; EC50 CD11b/CD18 [3, 6]: N/A Very Low
19 | COc1cc(/C=C2\SC(N)=NC2=O)ccc1OCC(=O)Nc1ccc(C)cc1 [Compound 1308620] | 3.3 | 6.27 | 
20 | CCOc1ccc(/C=c2\sc3nc(-c4ccco4)nn3c2=O)cc1OCC [Compound 2144321] | 6.49 | 5.07 | 
21 | Cc1ccc(-c2nn3c(C)nnc3s2)cc1NC(=O)c1ccc(-c2cccc(Cl)c2)o1 [Compound 666410] |  | 2.45 | EC50 [1, 7]: 6.22 µM
22 | O=C(Nc1nccs1)c1cccc(N2C(=O)c3cccc4c([N+](=O)[O-])ccc(c34)C2=O)c1 [Compound 2254616] | 4.43 | 1.87 | 
23 | Nc1c(C(=O)Nc2nccs2)sc2nc(-c3cccs3)cc(C(F)(F)F)c12 [Compound 2252798] | 4.1 | 4.06 | 
24 | COC(=O)c1[nH]c2ccccc2c1NC(=O)CN1CCCc2ccccc21 [Compound 658682] | 1.6 | 0.621 | 
25 | COc1ccc2nc(SCC(=O)Nc3ccc4sc(C)nc4c3)c(C#N)cc2c1 [Compound 1164441] | 4 | 2.77 | 
26 | CC1CCN(S(=O)(=O)c2ccc(NC(=O)Cn3nnc(-c4ccccc4)n3)cc2)CC1 [Compound 652267] | 6 | 5.01 | 
27 | CC(C)c1nc2sc3c(SCC(=O)NCc4ccco4)ncnc3c2c2c1CCC2 [Compound 664182] | 4.24 | 3.78 | 
28 | CCc1cc(=O)oc2cc(C)c3c(C)coc3c12 [Compound 707842] | 15 |  | EC50 CD11c/CD18 ([2]; Table 3): Infinite
29 | O=C(Oc1ccc2c(=O)c(Oc3ccc4ccccc4c3)coc2c1)c1cncc(Br)c1 [Compound 1045434] | 9.84 |  | EC50 CD11c/CD18 ([2]; Table 3): Infinite
30 | C=CCn1c(SCC(=O)c2[nH]c(C)c(C(=O)OC)c2C)nc2scc(-c3ccc(OC)c(OC)c3)c2c1=O [Compound 1745635] | 3.71 |  | EC50 [1, 7]: 3.71 µM; EC50 CD11c/CD18 ([2]; Table 3): Very low; EC50 CD11c/CD18 ([2]; Table 4): N/A Very Low; EC50 CD11b/CD18 [3, 6]: N/A Very Low
31 | Cc1ccc2sc(-c3ccc(NC(=O)c4cc(-n5cnnc5)ccc4Cl)cc3)nc2c1 [Compound 1017701] | 8.11 | 2.72 | 
32 | Cc1cc(OCC(=O)Nc2ccc(N3CCN(C(=O)c4ccco4)CC3)cc2)cc(C)c1Cl [Compound 1255242] | 3.41 | 2.57 | 
33 | N=C1/C(=C\c2ccc(-c3cccc(Cl)c3)o2)C(=O)N=C2SC=C(c3ccccc3)N12 [Compound 1984877] | 3.07 | 2.16 | 
34 | N=C1/C(=C\c2ccc(-c3cc(Cl)cc(Cl)c3)o2)C(=O)N=C2SC=C(c3ccccc3)N12 [Compound 1599902] | 5.71 | 2.23 | 
35 | Cc1ccc(-c2nc3ncccc3o2)cc1NC(=O)c1sc2ccccc2c1Cl [Compound 1132508] | 4.44 | 5.39 | 
36 | Cc1ccsc1/C=C/C1=Cc2c(sc(NC(=O)CSc3nnc(N)[nH]3)c2C#N)C(C)(C)C1 [Compound 2083967] | 3.33 | 2.7 | 
37 | Cc1ccc(-c2ccc(/C=C(\C#N)C(=O)Nc3cc(C)nn3-c3ccccc3)o2)cc1 [Compound 1554430] | 4.68 | 1.3 | 
38 | Cc1ccc(-n2c(N)c(C(=O)Nc3c(C)n(C)n(-c4ccccc4)c3=O)c3nc4ccccc4nc32)cc1 [Compound 1949560] | 5.46 | 5.53 | 
39 | O=C(CN1C(=O)c2ccccc2C1=O)Nc1ccc(-c2nc3ccccc3o2)cc1 [Compound 1255636] | 0.678 |  | EC50 CD11c/CD18 ([2]; Table 4): N/A Very Low; EC50 CD11b/CD18 [3, 5]: Very Low; EC50 CD11b/CD18 [3, 6]: N/A Very Low
40 | CS(=O)(=O)c1ccc2c(c1)SC1=NC(=O)/C(=C/c3ccco3)C(=N)N12 [Compound 1951731] | 3.65 | 4.21 | 
41 | Cc1cc(C)cc(OCC(=O)Nc2ccc(N3CCCC3)cc2)c1 [Compound 960705] | 3.49 | 2.28 | 
